From patent US5541171A, “Orally administrable pharmaceutical composition” (priority 1981, dated 1996)
Entries after “also recorded” stand apart in the source; their conditions may differ.

Columns and labels:
[1] = tested on: ulcerative colitis or proctitis; test: Randomised double-blind 16 week maintenance trial in colitis: relapse; assay type: in vivo, patients
Procedure: Seventy-two patients who were in remission with ulcerative colitis or proctitis and taking at least 4 sulphasalazine tablets each day gave their informed consent to a clinical trial. Remission was defined as the passage of three or fewer stools each day without blood or slime during the previous month. Thirty-six patients were male and 36 female. Sigmoidoscopy with rectal biopsy was performed initially and patients only entered the trial if the mucosa was normal (grade 1) or oedematous (grade 2). Biopsies were coded and reviewed by a pathologist who graded them as 1 (normal) or grades 2, 3 or 4 representing mild, moderate or severe inflammatory change.
At least 3 tablets of 5-ASA were taken daily (1200 mg) with an increased dose of 1 tablet for each gram of sulphasalazine above the minimum entry dose of 2 grams for patients taking a high dose of sulphasalazine. […]

[2] = in vivo
Procedure: Patients completed diary cards throughout 16 weeks and were asked to note any side effects; they were seen after 4, 12 and 16 weeks. On completion of the trial a further sigmoidoscopy was performed to ensure the muscosa appeared normal. Patients were seen promptly if symptoms recurred and a sigmoidoscopy was performed at that time. A relapse was defined as a recurrence of symptoms with increased stool frequency and blood loss with sigmoidoscopic changes of contact or spontaneous mucosal haemorrhage (grade 3) or the presence of pus with bleeding and ulceration (grade 4). Blood was taken for a routine blood count and examination of the film at each clinic attendance and measurements of the serum electrolytes and liver function tests were performed initially and after 16 weeks. The study, which was randomised and double-blind in design, involved using identical placebo tablets for both sulphasalazine and 5-ASA; each patient was given two sets of tablets with either active 5-ASA and placebo sulphasalazine or placebo 5-ASA and active sulphasalazine. The patient's usual dose of sulphasalazine was continued with a minimum dose of 2 grams daily. The tablets of 5-ASA contained 400 mg (ie the amount of 5-ASA contained in 1 gram of sulphasalazine). […] Compliance was checked at each hospital visit by counting the number of tablets returned. […]

[3] = tested on: colitis, Crohn's disease, idiopathic proctitis and chronic arthritis; settings: in vivo; cited from earlier work
[4] = cited from earlier work
[5] = Serum sulphapyridine levels after ingestion of coated capsules (HPLC)
Procedure: Six convalescent patients, 3 male and 3 female with a mean age of 57 years, from a general medical ward gave informed consent to a clinical trial. […] The thickness of the coat was checked using a micrometer to establish the range of thickness and to measure both the wide and narrow end of the capsule. Each capsule contained barium sulphate (300 mg) potato starch (20 mg) and sulphapyridine (300 mg) as a convenient marker Plain abdominal X-rays were taken at 5, 8 and 12 hours after ingestion and blood samples at 0, 3, 5, 7, 9, 12 and 24 hours after ingestion to assay sulphapyridine levels.
Sulphapyridine was analysed by high pressure liquid chromotography (HPLC) using a modification of the method described by Shaw et al (J. Pharm. Pharmacol. 1980;32;67). The analysis was performed on a LiChrosorb 10 RP 18 bonded silica reversed phase column (Merck). The mobile phase was acetonitrile--0.05M potassium dihydrogen phosphate solution (20:80) containing 0.1 per cent tetrabutyl ammonium hydroxide. Sulphapyridine was detected spectrometrically at 260 nm. Serum samples were treated with an equal volume of ethanol to precipitate plasma proteins and after centrifugation, the supernatant was injected on to the chromatograph. Sulphapyridine concentration was read directly from a calibration curve which was linear over the range 1-25 μg/ml (R=0.99).

SMILES | significance of difference in relapses between 5-ASA and sulphasalazine ([1]; chi squared) | side effects (headache, nausea or indigestion), comparison between groups [2] | usefulness in treatment [3] | clearance / excretion ([4]; in vivo) | serum levels ([4]; in vivo) | drug detected in serum 3 hours after ingestion ([5]; 3 hours, any patient) | time of maximal serum levels ([5]; human, in vivo) | patients with drug detected in serum 5 hours after ingestion ([5]; in vivo) | absorption after oral administration [4] | Relapses ([1]; 16 weeks, 34 patients on 5-ASA (coated tablets, at least 1200 mg daily), 33 on sulphasalazine (minimum 2 grams daily))
Nc1ccc(O)c(C(=O)O)c1 [Example 5-ASA, 5-amino-salicylic acid] | not statistically significant; also recorded: p = NS | no difference | pharmacologically active agent in the treatment of colonic and rectal ailments | excreted rapidly after acetylation | very low |  |  |  |  | 
Nc1ccc(S(=O)(=O)Nc2ccccn2)cc1 [sulphapyridine] |  |  |  | slowly cleared from the serum |  | No drug was detected | 12 or 24 hours after ingestion | 2 patients | almost entirely absorbed from the small intestine before reaching the colon | 
O=C(O)c1cc(/N=N/c2ccc(S(=O)(=O)Nc3ccccn3)cc2)ccc1O [sulphasalazine, Salicylazosulphapyridine] |  | no difference | useful in the treatment of colitis, Crohn's disease, idiopathic proctitis and chronic arthritis |  |  |  |  |  | only absorbed to a limited extent before reaching the colon | 6 patients
